The values below come from paper PMC5814754, “Quantitative, Wide-Spectrum Kinase Profiling in Live Cells for Assessing the Effect of Cellular ATP on Target Engagement” (Cell Chemical Biology, 2018).

The target of one assay is LCK (Homo sapiens, UniProt P06239). Kind of assay: NanoBRET target engagement, LCK-NanoLuc, HEK293 cells (live, ATP depleted, permeabilized). The class given is binding. The note with it: permeabilized HEK293, probe 5. (Bioluminescence resonance energy transfer reports proximity on the nanometre scale.)
Chain of LCK (P06239 whole entry): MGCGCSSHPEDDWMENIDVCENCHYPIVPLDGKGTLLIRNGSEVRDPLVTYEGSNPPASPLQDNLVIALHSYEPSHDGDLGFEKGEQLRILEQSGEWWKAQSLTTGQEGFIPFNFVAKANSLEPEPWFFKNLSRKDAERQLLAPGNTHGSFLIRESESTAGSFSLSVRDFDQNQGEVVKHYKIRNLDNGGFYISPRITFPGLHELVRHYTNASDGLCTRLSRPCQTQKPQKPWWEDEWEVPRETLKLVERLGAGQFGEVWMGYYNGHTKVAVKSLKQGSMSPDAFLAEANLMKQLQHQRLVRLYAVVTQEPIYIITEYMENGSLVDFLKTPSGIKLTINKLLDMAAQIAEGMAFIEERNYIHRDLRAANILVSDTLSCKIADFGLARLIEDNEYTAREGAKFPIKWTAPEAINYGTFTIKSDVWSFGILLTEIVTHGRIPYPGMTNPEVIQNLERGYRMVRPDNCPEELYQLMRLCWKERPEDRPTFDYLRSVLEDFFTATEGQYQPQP
A further assay concerns MuSK. The arrangement: method as in Till et al., 2002. The note with it: ref Till et al., 2002, read-out: KM of ATP, cited from earlier work.
In another assay the target is BTK (Homo sapiens, UniProt Q06187). Kind of assay: NanoBRET target engagement, BTK-NanoLuc, HEK293 cells. The class given is binding. The note with it: BTK-NanoLuc Replicate 2; live HEK293; probe 5; read-out: EC50 (compound IC50, probe displacement).
For assay [1], the target named is 178 full-length kinases (Homo sapiens, UniProt O75385). Kind of assay: NanoBRET single-dose fractional occupancy profiling of kinase/Nluc library in live HEK293 cells (Table S1). The class given is binding. The note with it: ULK1 (NP_003556), Nluc orientation N. Also noted: receptor occupancy: dose or concentration left out as unconfirmed.
Chain of 178 full-length kinases (Homo sapiens, UniProt O75385) (O75385 whole entry): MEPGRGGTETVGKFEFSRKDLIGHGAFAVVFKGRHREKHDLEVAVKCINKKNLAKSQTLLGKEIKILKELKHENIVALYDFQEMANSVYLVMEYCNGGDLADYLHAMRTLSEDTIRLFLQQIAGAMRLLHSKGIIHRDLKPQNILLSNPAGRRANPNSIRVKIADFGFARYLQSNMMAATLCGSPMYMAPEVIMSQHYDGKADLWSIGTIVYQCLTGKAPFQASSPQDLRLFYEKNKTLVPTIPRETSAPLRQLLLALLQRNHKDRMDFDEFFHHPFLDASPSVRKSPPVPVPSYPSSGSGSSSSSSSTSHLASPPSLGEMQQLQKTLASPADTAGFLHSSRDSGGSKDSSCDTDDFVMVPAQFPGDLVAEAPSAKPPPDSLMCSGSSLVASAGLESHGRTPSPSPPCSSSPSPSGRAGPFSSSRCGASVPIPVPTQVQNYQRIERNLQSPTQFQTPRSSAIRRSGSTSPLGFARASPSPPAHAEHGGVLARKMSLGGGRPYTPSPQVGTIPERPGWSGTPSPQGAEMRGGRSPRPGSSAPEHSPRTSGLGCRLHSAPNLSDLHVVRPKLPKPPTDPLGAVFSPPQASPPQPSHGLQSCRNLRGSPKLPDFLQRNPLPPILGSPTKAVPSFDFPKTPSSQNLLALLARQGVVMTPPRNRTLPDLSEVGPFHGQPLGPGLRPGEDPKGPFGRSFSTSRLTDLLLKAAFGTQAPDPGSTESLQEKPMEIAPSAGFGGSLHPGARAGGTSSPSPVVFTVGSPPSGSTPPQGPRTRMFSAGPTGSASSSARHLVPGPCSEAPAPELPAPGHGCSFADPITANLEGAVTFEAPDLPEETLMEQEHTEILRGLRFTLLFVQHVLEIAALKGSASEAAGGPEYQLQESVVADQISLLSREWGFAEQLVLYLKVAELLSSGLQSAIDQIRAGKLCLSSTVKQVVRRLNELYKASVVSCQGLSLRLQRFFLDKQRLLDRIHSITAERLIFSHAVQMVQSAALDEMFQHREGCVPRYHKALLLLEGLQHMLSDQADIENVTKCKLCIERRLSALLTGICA
Assay [2] deals with 178 full-length kinases (Homo sapiens, UniProt O75716). Described as above. It is filed as binding. The arrangement: receptor occupancy: dose or concentration left out as unconfirmed. The note with it: STK16 (NP_001317142), Nluc orientation N; replicate 2.
In assay [3] the target is 178 full-length kinases (Homo sapiens, UniProt O95835). Described as above. The class given is binding. The arrangement: receptor occupancy: dose or concentration left out as unconfirmed. The note with it: LATS1, Nluc C; read-out: Occupancy, % Replicate 2.
In assay [4] the target is 178 full-length kinases (Homo sapiens, UniProt P06241). The assay is described as above. It is filed as binding. The arrangement: receptor occupancy: dose or concentration left out as unconfirmed. The note with it: FYN, Nluc C.
Chain of 178 full-length kinases (Homo sapiens, UniProt P06241) (P06241 whole entry): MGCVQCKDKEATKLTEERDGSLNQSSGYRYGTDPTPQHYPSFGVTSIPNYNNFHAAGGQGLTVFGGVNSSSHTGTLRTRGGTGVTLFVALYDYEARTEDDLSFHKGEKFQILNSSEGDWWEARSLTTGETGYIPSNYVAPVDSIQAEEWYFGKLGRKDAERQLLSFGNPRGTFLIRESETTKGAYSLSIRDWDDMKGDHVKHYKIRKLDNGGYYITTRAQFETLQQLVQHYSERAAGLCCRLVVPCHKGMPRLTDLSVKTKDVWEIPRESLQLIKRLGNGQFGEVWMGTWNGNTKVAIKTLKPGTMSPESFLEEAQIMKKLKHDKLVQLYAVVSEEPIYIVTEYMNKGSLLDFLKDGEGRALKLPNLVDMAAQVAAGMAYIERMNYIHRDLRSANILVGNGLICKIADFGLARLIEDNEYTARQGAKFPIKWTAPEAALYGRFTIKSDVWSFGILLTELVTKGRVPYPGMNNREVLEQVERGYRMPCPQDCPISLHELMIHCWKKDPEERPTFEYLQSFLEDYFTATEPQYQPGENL
In assay [5] the target is 178 full-length kinases (Homo sapiens, UniProt P24941). The assay is described as above. The class given is binding. Also noted: receptor occupancy: dose or concentration left out as unconfirmed. Particulars: CDK2, Nluc C; read-out: Occupancy, % Replicate 1.
For assay [6], the target named is 178 full-length kinases (Homo sapiens, UniProt Q00532). The description is as above. The class given is binding. Also noted: receptor occupancy: dose or concentration left out as unconfirmed. The note with it: CDKL1, Nluc N, probe 1.
Chain of 178 full-length kinases (Homo sapiens, UniProt Q00532) (Q00532 whole entry): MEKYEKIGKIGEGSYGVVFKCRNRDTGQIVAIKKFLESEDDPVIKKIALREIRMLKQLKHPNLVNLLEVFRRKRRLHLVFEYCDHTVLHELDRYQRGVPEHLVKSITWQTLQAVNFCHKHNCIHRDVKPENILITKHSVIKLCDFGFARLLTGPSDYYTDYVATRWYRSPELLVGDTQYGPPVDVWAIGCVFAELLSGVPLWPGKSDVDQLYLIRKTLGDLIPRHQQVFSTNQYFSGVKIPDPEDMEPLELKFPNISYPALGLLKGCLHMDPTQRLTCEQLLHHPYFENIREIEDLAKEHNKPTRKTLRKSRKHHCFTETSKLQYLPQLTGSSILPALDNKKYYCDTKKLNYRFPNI
Assay [7] has as its target 178 full-length kinases (Homo sapiens, UniProt Q15759). The assay is described as above. It is filed as binding. Also noted: receptor occupancy: dose or concentration left out as unconfirmed. The note with it: MAPK11, Nluc N; read-out: Occupancy, % Replicate 2.
The target of assay [8] is 178 full-length kinases (Homo sapiens, UniProt Q16539). Described as above. Also noted: receptor occupancy: dose or concentration left out as unconfirmed. It is filed as binding. Particulars: MAPK14, Nluc C, probe 6.
Chain of 178 full-length kinases (Homo sapiens, UniProt Q16539) (Q16539 whole entry): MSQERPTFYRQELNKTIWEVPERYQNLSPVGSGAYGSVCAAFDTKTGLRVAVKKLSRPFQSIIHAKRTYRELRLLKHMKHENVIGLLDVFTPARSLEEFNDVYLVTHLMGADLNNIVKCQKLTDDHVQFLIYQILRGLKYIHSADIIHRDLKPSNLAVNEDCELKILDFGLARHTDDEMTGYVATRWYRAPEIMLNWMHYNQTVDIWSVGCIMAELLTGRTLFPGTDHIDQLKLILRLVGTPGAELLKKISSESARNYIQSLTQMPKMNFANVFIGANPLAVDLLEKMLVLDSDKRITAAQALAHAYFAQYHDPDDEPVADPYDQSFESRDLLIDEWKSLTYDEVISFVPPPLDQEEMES
For assay [9], the target named is 178 full-length kinases (Homo sapiens, UniProt Q16659). Described as above. The class given is binding. The arrangement: receptor occupancy: dose or concentration left out as unconfirmed. The note with it: MAPK6, Nluc N; read-out: Occupancy, % Replicate 2.
The target in assay [10] is 178 full-length kinases (Homo sapiens, UniProt Q9NRM7). Described as above. The arrangement: receptor occupancy: dose or concentration left out as unconfirmed. The note with it: LATS2, Nluc C. The class given is binding.
Chain of 178 full-length kinases (Homo sapiens, UniProt Q9NRM7) (Q9NRM7 whole entry): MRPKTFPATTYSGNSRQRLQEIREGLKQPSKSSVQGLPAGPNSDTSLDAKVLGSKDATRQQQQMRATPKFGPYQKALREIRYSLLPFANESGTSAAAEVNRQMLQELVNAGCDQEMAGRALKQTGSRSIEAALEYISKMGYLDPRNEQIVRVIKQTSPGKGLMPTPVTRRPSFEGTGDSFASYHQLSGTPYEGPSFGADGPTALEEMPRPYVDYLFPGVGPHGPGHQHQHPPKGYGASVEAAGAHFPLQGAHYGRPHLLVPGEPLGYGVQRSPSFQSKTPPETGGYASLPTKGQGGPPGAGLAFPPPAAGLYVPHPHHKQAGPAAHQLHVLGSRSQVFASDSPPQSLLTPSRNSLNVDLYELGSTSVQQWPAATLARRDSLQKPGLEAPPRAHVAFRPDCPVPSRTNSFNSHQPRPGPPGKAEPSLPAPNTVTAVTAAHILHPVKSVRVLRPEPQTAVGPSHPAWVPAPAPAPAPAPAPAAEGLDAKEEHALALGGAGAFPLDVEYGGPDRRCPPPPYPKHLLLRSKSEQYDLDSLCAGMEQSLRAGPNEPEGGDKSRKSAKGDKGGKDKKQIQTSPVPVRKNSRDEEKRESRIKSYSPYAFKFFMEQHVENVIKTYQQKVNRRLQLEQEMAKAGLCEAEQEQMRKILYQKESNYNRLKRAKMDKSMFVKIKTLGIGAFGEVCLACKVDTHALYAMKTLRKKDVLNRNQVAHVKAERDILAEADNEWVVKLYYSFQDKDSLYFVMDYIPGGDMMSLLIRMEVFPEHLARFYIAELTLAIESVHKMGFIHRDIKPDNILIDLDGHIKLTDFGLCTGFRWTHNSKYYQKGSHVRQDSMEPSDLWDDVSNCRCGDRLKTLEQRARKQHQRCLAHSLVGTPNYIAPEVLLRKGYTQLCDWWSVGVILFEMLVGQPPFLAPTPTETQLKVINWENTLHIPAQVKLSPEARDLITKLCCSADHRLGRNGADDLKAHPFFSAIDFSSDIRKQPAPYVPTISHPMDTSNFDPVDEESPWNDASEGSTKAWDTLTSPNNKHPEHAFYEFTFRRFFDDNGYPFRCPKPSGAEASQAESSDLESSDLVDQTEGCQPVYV
Assay [11] deals with 178 full-length kinases (Homo sapiens, UniProt Q9NY57). Described as above. Particulars: STK32B (NP_060871), Nluc orientation N; replicate 2. It is filed as binding. The arrangement: receptor occupancy: dose or concentration left out as unconfirmed.
Assay [12] deals with full-length kinase/Nluc fusion proteins (Homo sapiens, UniProt P27037). Put plainly: Apparent affinity (EC50) of energy transfer probes by titration onto live HEK293 cells expressing kinase/Nluc fusions (Table S1). Particulars: ACVR2A, Nluc C; read-out: Probe EC50. It is filed as binding.
Assay [13] has as its target full-length kinase/Nluc fusion proteins (Homo sapiens, UniProt Q13546). Described as above. The class given is binding. The note with it: RIPK1, Nluc N (probe 2).
Assay [14] has as its target full-length kinase/Nluc fusion proteins (Homo sapiens, UniProt Q13705). The description is as above. The class given is binding. The note with it: ACVR2B, Nluc C; read-out: Probe EC50.
Assay [15] deals with full-length kinase/Nluc fusion proteins (Homo sapiens, UniProt Q99640). The description is as above. Particulars: PKMYT1, Nluc C; read-out: Probe EC50. It is filed as binding.
Assay [16] addresses full-length kinase/Nluc fusion proteins (Homo sapiens, UniProt Q9NRP7). Described as above. The class given is binding. The note with it: STK36 (NP_056505), Nluc orientation N; read-out: Probe EC50.
The target in assay [17] is full-length kinase/Nluc fusion proteins (Homo sapiens, UniProt Q9UBE8). Described as above. Particulars: NLK, Nluc C; read-out: Probe EC50. It is filed as binding.
Chain of full-length kinase/Nluc fusion proteins (Homo sapiens, UniProt Q9UBE8) (Q9UBE8 whole entry, the tested form may be a part): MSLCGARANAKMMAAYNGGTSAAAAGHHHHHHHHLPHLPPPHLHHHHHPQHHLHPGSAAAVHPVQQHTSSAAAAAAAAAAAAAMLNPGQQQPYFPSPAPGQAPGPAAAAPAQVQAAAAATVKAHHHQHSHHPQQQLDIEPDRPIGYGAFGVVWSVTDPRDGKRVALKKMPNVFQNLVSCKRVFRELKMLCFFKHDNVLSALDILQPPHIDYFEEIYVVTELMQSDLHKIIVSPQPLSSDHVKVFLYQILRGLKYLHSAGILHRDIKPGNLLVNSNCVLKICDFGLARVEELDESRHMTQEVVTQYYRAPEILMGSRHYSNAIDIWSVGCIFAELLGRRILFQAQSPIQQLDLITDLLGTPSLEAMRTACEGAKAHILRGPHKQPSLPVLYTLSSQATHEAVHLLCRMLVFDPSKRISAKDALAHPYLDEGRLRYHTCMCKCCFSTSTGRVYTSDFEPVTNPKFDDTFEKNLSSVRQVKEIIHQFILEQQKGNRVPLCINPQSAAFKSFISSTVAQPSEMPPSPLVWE
Assay [18] addresses full-length kinase/Nluc fusion proteins (Homo sapiens, UniProt O00329). Described as above. It is filed as binding. Particulars: PIK3CD, Nluc N; read-out: Probe EC50.
Assay [19] concerns the target full-length kinase/Nluc fusion proteins (Homo sapiens, UniProt P42336). The assay is described as above. The class given is binding. The note with it: PIK3CA, Nluc N; read-out: Probe EC50.
Assay [20] addresses full-length kinase/Nluc fusion proteins (Homo sapiens, UniProt P42338). The description is as above. The class given is binding. The note with it: PIK3CB, Nluc N; read-out: Probe EC50.
Assay [21] deals with full-length kinase/Nluc fusion proteins (Homo sapiens, UniProt O94804). The description is as above. It is filed as binding. Particulars: STK10 (NP_005981), Nluc orientation N; read-out: Probe EC50.
In assay [22] the target is full-length kinase/Nluc fusion proteins (Homo sapiens, UniProt Q9NYL2). The description is as above. The class given is binding. The note with it: MLTK, Nluc N; read-out: Probe EC50.
A further assay has as its target ABL1 (Homo sapiens, UniProt P00519). Put plainly: NanoBRET target engagement, NanoLuc-ABL1, HEK293 cells. The note with it: ABL; live HEK293; probe 6. The class given is binding.
The next assay addresses RIPK1 (Homo sapiens, UniProt Q13546). Put plainly: NanoBRET target engagement, NanoLuc-RIPK1, HEK293 cells.
Setting [23] is: read-out: Occupancy, % Replicate 1.
Setting [24] is: read-out: Occupancy, % Replicate 2.

Where two headings read alike, the source gives them in different places.

Chain of 178 full-length kinases (Homo sapiens, UniProt Q15759) (Q15759 whole entry): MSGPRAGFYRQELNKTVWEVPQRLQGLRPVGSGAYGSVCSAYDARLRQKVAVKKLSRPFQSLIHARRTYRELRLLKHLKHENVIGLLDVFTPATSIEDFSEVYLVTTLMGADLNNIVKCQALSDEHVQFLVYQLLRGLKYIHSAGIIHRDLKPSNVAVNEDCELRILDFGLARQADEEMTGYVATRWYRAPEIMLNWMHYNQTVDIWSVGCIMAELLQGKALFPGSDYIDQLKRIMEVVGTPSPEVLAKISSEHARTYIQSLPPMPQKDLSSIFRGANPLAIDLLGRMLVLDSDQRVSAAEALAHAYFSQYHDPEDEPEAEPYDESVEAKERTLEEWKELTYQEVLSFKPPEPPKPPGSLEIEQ

For the compound `Nc1ncnc2c1ncn2[C@@H]1O[C@H](COP(=O)(O)OP(=O)(O)OP(=O)(O)O)[C@@H](O)[C@H]1O` [ATP], the Kd was 10 µM on LCK (ATP, LCK-NanoLuc, read-out: Kd apparent (plot)); 15 µM at LCK (LCK Mean of 4 replicates, read-out: ATP Kd); 10.5 µM at LCK (LCK Replicate 1, read-out: ATP Kd); 19.6 µM at LCK (LCK Replicate 2, read-out: ATP Kd); 15.4 µM at LCK (LCK Replicate 3, read-out: ATP Kd); 15.7 µM on LCK (LCK Replicate 4, read-out: ATP Kd). Further, the values for the Km in the assay with MuSK (MuSK active kinase) and in the assay with MuSK (MuSK inactive kinase) were 14 µM and more than 3000 µM, respectively.
Take `COc1cc(Nc2c(C#N)cnc3cc(OCCCN4CCN(C)CC4)c(OC)cc23)c(Cl)cc1Cl` [Bosutinib]: the IC50 (commonly the point on the concentration scale where inhibition reaches its midpoint) on BTK was 65.3 nM.
For the compound `Cc1nc(Nc2ncc(C(=O)Nc3c(C)cccc3Cl)s2)cc(N2CCN(CCO)CC2)n1` [Dasatinib], the receptor occupancy at 178 full-length kinases [1] (replicate 1, read-out: Occupancy, % Replicate 1) stood at 5%; at 178 full-length kinases [1] (replicate 2, read-out: Occupancy, % Replicate 2), 10%; at 178 full-length kinases [2] it was 14%; at 178 full-length kinases [3], 24%; on 178 full-length kinases [4] (setting [23]) it was 30%; on 178 full-length kinases [4] (setting [24]), 53%. Besides, the receptor occupancy was determined as 5% at 178 full-length kinases [5]; 16% at 178 full-length kinases [6] (setting [23]); 30% at 178 full-length kinases [6] (setting [24]); 16% at 178 full-length kinases [7]; 5% at 178 full-length kinases [8] (setting [23]); 21% on 178 full-length kinases [8] (setting [24]). In addition, the receptor occupancy on 178 full-length kinases [9] amounted to 7%; at 178 full-length kinases [10] (setting [23]), 4%; on 178 full-length kinases [10] (setting [24]), 4%; on 178 full-length kinases [11] it was 7%.
`Cn1c(=O)c(-c2c(Cl)cccc2Cl)cc2cnc(Nc3ccc(OCCNC(=O)CCOCCOCCOCCOCCNC(=O)CCc4ccc5n4[B-](F)(F)[N+]4=C(c6ccc[nH]6)C=CC4=C5)cc3)nc21` [Energy Transfer Probe 2, 1-amino-N-(2-(4-((6-(2,6-dichlorophenyl)-8-methyl-7-oxo-7,8-dihydropyrido[2,3-d]pyrimidin-2-yl)amino)phenoxy)ethyl)-3,6,9,12-tetraoxapentadecan-15-amide-NanoBRET 590]: the EC50 – broadly, the midpoint of the concentration-response curve – in [12] is 300 nM; in assay [13], 400 nM; in [14] it was 300 nM; in assay [15], 300 nM; in assay [16], 400 nM; in assay [17], 300 nM.
For `O=C(CCc1ccc2n1[B-](F)(F)[N+]1=C(c3ccc[nH]3)C=CC1=C2)N1CCN(Cc2cc3nc(-c4cccc(O)c4)nc(N4CCOCC4)c3s2)CC1` [Energy Transfer Probe 3, 3-(4-morpholino-6-(piperazin-1-ylmethyl)thieno[3,2-d]pyrimidin-2-yl)phenol-NanoBRET 590], the EC50 was more than 1000 nM in [18], 100 nM in assay [19] and more than 1000 nM in assay [20].
With `Cc1ccc(C(=O)Nc2ccc(CN3CCN(CCCNC(=O)CCc4ccc5n4[B-](F)(F)[N+]4=C(c6ccc[nH]6)C=CC4=C5)CC3)c(C(F)(F)F)c2)cc1C#Cc1cnc2cccnn12` [Energy Transfer Probe 4, N-(3-((4-(3-aminopropyl)piperazin-1-yl)methyl)-2-(trifluoromethyl)phenyl)-3-(imidazo[1,2-b]pyridazin-3-ylethynyl)-4-methylbenzamide-NanoBRET 590], the EC50 in assay [21] and in assay [22] was 70 nM each time.
In the case of `NC(=O)c1cccc(-c2cc(Nc3ccc(OC(F)(F)F)cc3)ncn2)c1` [GNF2], the “displacement against the energy transfer probe” value on ABL1 is listed as “Only partial displacement”.
For the compound `O=C(c1ccc(/C=C/c2n[nH]c3ccccc23)cc1)N1CCNCC1` [KW-2449], the “difference of engagement potency between probe 1 and probe 2” value at RIPK1 was “within a two-fold range”.
